Assay results taken from US9650380B2, “Difluoromethylene compound” (SATO PHARMACEUTICAL CO., LTD., priority 2012, dated 2017).

Molecular target: T1, human URAT1 (Homo sapiens, UniProt Q96S37)
T1 construct: Human URAT1 full-length cDNA was introduced to an expression vector pcDNA5/FRT/V5-His TOPO; expressed in transfected cells
T1 sequence (Q96S37 1-553): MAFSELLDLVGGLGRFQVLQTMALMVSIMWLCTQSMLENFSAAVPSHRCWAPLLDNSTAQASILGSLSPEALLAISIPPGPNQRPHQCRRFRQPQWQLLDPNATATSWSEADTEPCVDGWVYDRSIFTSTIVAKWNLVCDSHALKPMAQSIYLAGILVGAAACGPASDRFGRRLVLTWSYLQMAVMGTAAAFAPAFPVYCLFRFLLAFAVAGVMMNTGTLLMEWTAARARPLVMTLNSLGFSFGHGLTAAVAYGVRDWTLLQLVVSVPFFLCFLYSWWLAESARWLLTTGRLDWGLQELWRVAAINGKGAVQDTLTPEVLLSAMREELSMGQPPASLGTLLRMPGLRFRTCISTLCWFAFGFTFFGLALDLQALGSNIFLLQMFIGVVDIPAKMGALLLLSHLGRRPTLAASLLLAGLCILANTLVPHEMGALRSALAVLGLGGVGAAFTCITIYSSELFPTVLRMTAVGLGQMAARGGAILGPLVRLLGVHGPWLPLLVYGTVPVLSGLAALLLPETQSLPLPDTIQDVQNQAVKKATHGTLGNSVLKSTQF
Assay: Test for uric acid transport inhibition using human URAT1 expression cells
Type: cell-based
Conditions: human URAT1 stable expression CHO cells; 14C-labeled uric acid 38 μM final; incorporation 5 minutes at room temperature; 100% window defined with benzbromarone 100 μM; read-out: URAT1 inhibitory activity (IC50)
Procedure: In this Example, it was evaluated whether the Example compound and the Reference example compound mentioned below has the URAT1 inhibitory activity.
Human URAT1 full-length cDNA was introduced to an expression vector pcDNA5/FRT/V5-His TOPO (registered trademark) (Invitrogen Corporation). The obtained expression plasmid was introduced to Chinese hamster ovary cell (hereinafter referred to as the CHO cell) by the liposome method using Lipofectamine LTX (Invitrogen) and cultured in a selection medium including hygromycin, whereby to prepare human URAT1 stable expression cell.
The human URAT1 expression CHO cell were cultured using D-MEM/F-12 (1:1) mixed medium including 10% bovine fatal serum and hygromycin at 37° C. in the presence of 5% CO2. The cells were seeded onto a 96-well plate (Corning Incorporated) at 0.8×10^5 cells/well, and after 24 hours, the test for uric acid transport inhibition below was performed.
The medium was removed by aspiration, and then the cells were washed once with an assay buffer including 125 mM of sodium gluconate, 4.8 mM of potassium gluconate, 1.2 mM of potassium dihydrogen phosphate, 1.2 mM of magnesium sulfate, 1.3 mM of calcium gluconate and 5.6 mM of glucose, 50 μL assay buffer including the test compound in various concentrations was added, and further 50 μL assay buffer including a radioactive ligand (uric acid labeled with ^14C; 38 μM final concentration) was added, and incorporation reaction was performed at room temperature for 5 minutes. Immediately after the completion of the reaction, the reaction mixture was washed twice with 100 μL ice-cold assay buffer, and 100 μL of 0.1N sodium hydroxide was added. The reaction mixture was stirred to lyse the cells, and 4 mL of Hionic-Fluor (Packard BioScience CO.) was added, and then the radioactivity was measured with a liquid scintillation counter (Beckman Coulter, Inc. and Packard BioScience CO).
The radioactivitiy when each concentration of the test compound was added (uric acid incorporation activity, %) was calculated in which the difference of the radioactivity when the test compound was not added (DMSO added) and the radioactivity when a positive control compound, benzbromarone (a known URAT1 inhibitor) was added in 100 μM, was taken as 100%, and the concentration of the test compound when the uric acid incorporation activity was inhibited to 50% (IC50) was obtained.

Row | IC50 [nM] | Compound
1 | 53 | Cc1nn(Cc2c(Cl)cccc2C2CC2)c2cc(C(=O)O)cnc12 [Reference Example 2, 1-(2-chloro-6-cyclopropylbenzyl)-3-methyl-1H-pyrazolo[4,3-b]pyridine-6-carboxylic acid, reference compound]
2 | 32 | O=C(O)c1cnc2c(Cl)nn(Cc3c(Cl)cccc3C3CC3)c2c1 [Reference Example 3, 3-chloro-1-(2-chloro-6-cyclopropylbenzyl)-1H-pyrazolo[4,3-b]pyridine-6-carboxylic acid, reference compound]
3 | 13 | O=C(O)c1cnc2c(C(F)(F)F)nn(Cc3c(Cl)cccc3C3CC3)c2c1 [Reference Example 5, 1-(2-chloro-6-cyclopropylbenzyl)-3-trifluoromethyl-1H-pyrazolo[4,3-b]pyridine-6-carboxylic acid, reference compound]
4 | 24 | Cc1nn(Cc2c(Cl)cccc2C2CC2)c2cc(CCC(=O)O)ccc12 [Reference Example 8, 3-[1-(2-chloro-6-cyclopropylbenzyl)-3-methyl-1H-indazol-6-yl]propionic acid, reference compound]
5 | 78 | Cc1nn(Cc2c(Cl)cccc2Cl)c2cc(C(O)c3nnn[nH]3)ccc12 (stereo not drawn) [Reference Example 9, [1-(2,6-dichlorobenzyl)-3-methyl-1H-indazol-6-yl](1H-tetrazol-5-yl)methanol, reference compound]
6 | 15 | O=C(O)Cc1ccc2c(C(F)(F)F)nn(Cc3c(Cl)cccc3Cl)c2c1 [Reference Example 11, [1-(2,6-dichlorobenzyl)-3-trifluoromethyl-1H-indazol-6-yl]acetic acid, reference compound]
7 | 16 | O=C(O)Cc1ccc2c(Cl)nn(Cc3c(Cl)cccc3Cl)c2c1 [Reference Example 12, [3-chloro-1-(2,6-dichlorobenzyl)-1H-indazol-6-yl]acetic acid, reference compound]
8 | 40 | Cc1nn(Cc2c(F)cccc2Cl)c2cc(C(F)(F)C(=O)O)ccc12 [example 9, [1-(2-chloro-6-fluorobenzyl)-3-methyl-1H-indazol-6-yl]difluoroacetic acid]
9 | 48 | Cc1nn(Cc2cccc(Cl)c2Cl)c2cc(C(F)(F)C(=O)O)ccc12 [example 14, [1-(2,3-dichlorobenzyl)-3-methyl-1H-indazol-6-yl]difluoroacetic acid]
10 | 52 | Cc1nn(Cc2c(F)cccc2C(F)(F)F)c2cc(C(F)(F)C(=O)O)ccc12 [example 22, difluoro[1-(2-fluoro-6-trifluoromethylbenzyl)-3-methyl-1H-indazol-6-yl]acetic acid]
11 | 26 | Cc1cccc(C#N)c1Cn1nc(C)c2ccc(C(F)(F)C(=O)O)cc21 [example 24, [1-(2-cyano-6-methylbenzyl)-3-methyl-1H-indazol-6-yl]difluoroacetic acid]
12 | 23 | Cc1nn(Cc2c(C#N)cccc2C2CC2)c2cc(C(F)(F)C(=O)O)ccc12 [example 32, [1-(2-cyano-6-cyclopropylbenzyl)-3-methyl-1H-indazol-6-yl]difluoroacetic acid]
13 | 390 | Cc1nn(Cc2c(C#N)cccc2CO)c2cc(C(F)(F)C(=O)O)ccc12 [example 53, [1-(2-cyano-6-hydroxymethylbenzyl)-3-methyl-1H-indazol-6-yl]difluoroacetic acid]
14 | 46 | Cc1nn(Cc2c(Cl)cccc2C(N)=O)c2cc(C(F)(F)c3nnn[nH]3)ccc12 [example 67, 3-chloro-2-{6-[difluoro(1H-tetrazol-5-yl)methyl]-3-methyl-1H-indazol-1-ylmethyl}benzamide]
15 | 30 | Cc1nn(Cc2c(C#N)cccc2CO)c2cc(C(F)(F)c3nnn[nH]3)ccc12 [example 104]
16 | 44 | Cc1cccc(C(N)=O)c1Cn1nc(C)c2ccc(C(F)(F)c3nnn[nH]3)nc21 [example 110, 2-{6-[difluoro(1H-tetrazol-5-yl)methyl]-3-methyl-1H-pyrazolo[3,4-b]pyridin-1-ylmethyl}-3-methylbenzamide]
17 | 36 | Cc1nn(Cc2c(C(N)=O)cccc2C2CC2)c2nc(C(F)(F)c3nnn[nH]3)ccc12 [example 116, 3-cyclopropyl-2-{6-[difluoro(1H-tetrazol-5-yl)methyl]-3-methyl-1H-pyrazolo[3,4-b]pyridin-1-ylmethyl}benzamide]
18 | 268 | Cc1cccc(C#N)c1Cn1nc(CO)c2ccc(C(F)(F)C(=O)O)cc21 [example 121, [1-(2-cyano-6-methylbenzyl)-3-hydroxymethyl-1H-indazol-6-yl]difluoroacetic acid]
